Source: patent US10071083B2 (Ovid Therapeutics Inc., priority 2017, dated 2018)

How the values were obtained:
tinnitus = conditions: published studies reviewed by Jufas and Wood (2015); cited from earlier work
[1] = test system: healthy, male and female subjects; assay: Study of driving performance after gaboxadol administration (Example 3); format: in vivo, human
Description: The study participants included healthy, male and female subjects between 21 and 45 years of age, with a valid drivers license for at least 3 years.
Following a cognitive and psychomotor test battery, the driving test started at 9 am and lasted for one hour.

[2] = test system: healthy adults subjected to a 5-hour sleep restriction; assay: Study of daytime performance after sleep restriction (Example 4); format: in vivo, human
Method: The study included a 2-night single-blind placebo run-in period, a 4-night double-blind treatment period during which sleep was restricted to 5 hours and a 2-night single-blind placebo run-out period. The study included healthy male and female volunteers 18 to <55 years of age.
2-night run-in period: All patients received placebo
2-night run-out period: All patients received placebo
The primary endpoints included observations based on the Multiple Sleep Latency Test (MSLT) and Slow Wave Sleep (SWS) assessment.

[3] = human, in vivo
patients = patients with a history of drug abuse who received gaboxadol; cited from earlier work

O=C1CN=C(c2ccccc2Cl)c2cc([N+](=O)[O-])ccc2N1 [Clonazepam]
efficacy in treating tinnitus (tinnitus): effective

Oc1noc2c1CCNC2 [gaboxadol, 4,5,6,7-tetrahydroisoxazolo [5,4-c]pyridine-3-ol]
most frequent adverse events, middle-of-the-night treatment ([1]; gaboxadol 15 mg at 4 am): dizziness, nausea and somnolence
effect on driving after evening dose compared with blood alcohol ([1]; gaboxadol 15 mg evening dose, comparison with 0.05% blood alcohol concentration): less than the effect observed at a 0.05% blood alcohol concentration
most frequent adverse events, evening treatment ([1]; gaboxadol 15 mg in the evening): headache and somnolence
biophysiological measures of stress (heart rate variability, cortisol levels, catecholamine levels, body temperature) versus placebo ([2]; gaboxadol 15 mg versus placebo): no differences
daytime performance, effect sizes of the neurocognitive battery ([2]; gaboxadol 15 mg versus placebo): no strong evidence that gaboxadol improves daytime performance
daytime sleepiness during the Sleep Restriction period versus placebo (MSLT) ([2]; gaboxadol 15 mg, 4 nights, sleep restricted to 5 hours, p=0.047, 1 sided): significantly less daytime sleepiness
MSLT longer than placebo, on average ([2]; gaboxadol 15 mg, last two Sleep Restriction days): 2.01 min
Karolinska Sleepiness Score (KSS) less than placebo, on average ([2]; gaboxadol 15 mg, last two Sleep Restriction days, LDA model, p=0.058, 1 sided): 0.68
SWS longer than placebo, on average ([2]; gaboxadol 15 mg, last two Sleep Restriction nights): 20.53 min
slow wave sleep (SWS) during the Sleep Restriction period versus placebo ([2]; gaboxadol 15 mg, p<0.001, 1 sided): significantly more SWS
CL (in the CL/F line) ([3]; iv, 10 mg): 438 mL/min
dose dependence of plasma AUC0-∞ and Cmax ([3]; po): dose proportional increases
psychiatric adverse events (patients): steep increase

Cc1nnc2n1-c1ccc(Cl)cc1C(c1ccccc1)=NC2 [alprazolam]
efficacy in treating tinnitus (tinnitus): opposing results

CN1C(=O)CN=C(c2ccccc2)c2cc(Cl)ccc21 [diazepam]
efficacy in treating tinnitus (tinnitus): not effective
